Measurements reported in PubChem BioAssay (NCI).
Values joined by “and” are separate entries in the source; they are usually repeats but may differ in a detail not shown here. Equal entries are not always repeated.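 These data come from cells grown in 96-well plates and exposed to compound for 48 hours at five concentrations. Here, GI50 denotes the concentration required for 50% inhibition of growth. TGI denotes the concentration required for complete inhibition of growth.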

Tests used:
Assay in all cases: DTP human tumour cell line panel, 48 h
UACC-62 melanoma = tested on: UACC-62 melanoma
MOLT-4 leukemia = tested on: MOLT-4 leukemia
NCI/ADR-RES ovarian = tested on: NCI/ADR-RES ovarian
SNB-19 CNS = tested on: SNB-19 CNS
SR leukemia = tested on: SR leukemia
HCT-116 colon = tested on: HCT-116 colon
OVCAR-4 ovarian = tested on: OVCAR-4 ovarian
DU-145 prostate = tested on: DU-145 prostate
BT-549 breast = tested on: BT-549 breast
MDA-MB-231 breast = tested on: MDA-MB-231 breast

Compound	GI50 (UACC-62 melanoma)	TGI (UACC-62 melanoma)	GI50 (MOLT-4 leukemia)	TGI (MOLT-4 leukemia)	GI50 (NCI/ADR-RES ovarian) [µM]	TGI (NCI/ADR-RES ovarian) [µM]	GI50 (SNB-19 CNS)	TGI (SNB-19 CNS)	GI50 (SR leukemia)	TGI (SR leukemia)	GI50 (HCT-116 colon)	TGI (HCT-116 colon)	GI50 (OVCAR-4 ovarian)	TGI (OVCAR-4 ovarian)	GI50 (DU-145 prostate)	TGI (DU-145 prostate)	GI50 (BT-549 breast)	TGI (BT-549 breast)	GI50 (MDA-MB-231 breast)	TGI (MDA-MB-231 breast)
CN(C)c1ccc(/C=C/C(=O)c2ccc(Nc3nc(Nc4ccc(F)cc4)nc(Nc4ccc(F)cc4)n3)cc2)cc1	27.4 µM	> 100 µM	6.48 µM	63 µM	4.39	30.7	29.6 µM	> 100 µM	7.12 µM	> 100 µM	11.4 µM	32.4 µM	15 µM	53.4 µM	25.1 µM	91.6 µM	13.5 µM	43.6 µM	13.5 µM	46.4 µM
NC(N)=NN=c1c(=O)c2ccccc2c1=O	12.7 µM	25.8 µM	1.46 µM	3.82 µM	10.4	31.7	1.72 µM	3.25 µM	2.4 µM	5.92 µM	2.01 µM	4.18 µM	12.6 µM	25.2 µM	1.9 µM	3.39 µM	15.7 µM	29.2 µM	16 µM	33.7 µM
COc1cc2c(Oc3ccc(NC(=O)C4(C(=O)Nc5ccc(F)cc5)CC4)cc3F)ccnc2cc1OCCCN1CCOCC1	1.24 µM and 0.891 µM	2.72 µM and 2.48 µM	0.573 µM and 0.547 µM	> 24.9 µM and 5.45 µM	1.98	> 10	1.99 µM and 2.14 µM	5.77 µM and > 10 µM	0.932 µM and 0.583 µM	3.45 µM and 2.78 µM	0.609 µM and 0.586 µM	2.02 µM and 2.06 µM	0.747 µM and 2.56 µM	13.2 µM and > 10 µM	1.52 µM and 1.98 µM	4.39 µM and > 10 µM	1.82 µM and 2.78 µM	3.93 µM and > 9.51 µM	1.33 µM and 1.28 µM	2.72 µM and 2.74 µM
